The nature of data set [1]: Inhibition of -ureolysis in live Helicobacter pylori Tx30a (ATCC 51932) in presence of urea by absorbance based analysis. In kind it is functional.
Data set [2] is described as follows: Inhibition of Sporosarcina pasteurii CCM 2056 native urease using urea as substrate preincubated for 1 hr followed by substrate addition and measured for 1.5 hrs by colorimetric method.
Data set [3] is described as follows: Inhibition of Sporosarcina pasteurii CCM 2056 native urease using urea as substrate measured for 1.5 hrs by colorimetric method.
The subject of data set [4] is HEK293. In words: Cytotoxicity against HEK293 cells assessed as reduction in cell proliferation at 10 uM incubated for 72 hrs by SRB assay relative to control. It counts as toxicity, cell-based. Set-up: scale not given: the % may be the effect or the level left. As to conditions: human, hek293, 72 h.
Data set [5] can be described thus: Cytotoxicity against mouse Balb/3T3-L1 cells assessed as reduction in cell proliferation at 1 uM incubated for 72 hrs by SRB assay relative to control. In kind it is toxicity, cell-based. As to conditions: read-out: Activity.
Data set [6] can be described thus: Cytotoxicity against HEK293 cells assessed as reduction in cell proliferation at 100 uM incubated for 72 hrs by SRB assay relative to control. The settings on record: human, read-out: Activity. In kind it is toxicity, cell-based.
For data set [7], the system named is Sporosarcina pasteurii. In words: Inhibition of Sporosarcina pasteurii CCM 2056 native urease using urea as substrate in presence of DTT measured for 1.5 hrs by colorimetric method.
Data set [8] in a line: Cytotoxicity against mouse Balb/3T3-L1 cells assessed as reduction in cell proliferation at 0.31 uM incubated for 72 hrs by SRB assay relative to control. In kind it is toxicity, cell-based. As to conditions: read-out: Activity.
The test system of data set [9] is Sporosarcina pasteurii. In words: Inhibition of Sporosarcina pasteurii CCM 2056 native urease using urea as substrate by colorimetric method. As to conditions: TDE = time-dependent effect.
A short description of data set [10]: Cytotoxicity against mouse Balb/3T3-L1 cells assessed as reduction in cell proliferation at 100 uM incubated for 72 hrs by SRB assay relative to control. It counts as toxicity, cell-based. The settings on record: read-out: Activity.
Data set [11] can be described thus: Cytotoxicity against mouse Balb/3T3-L1 cells assessed as reduction in cell proliferation at 3.14 uM incubated for 72 hrs by SRB assay relative to control. In kind it is toxicity, cell-based. Set-up: scale not given: the % may be the effect or the level left. As to conditions: balb/3t3-l1, 72 h.
The nature of data set [12]: Cytotoxicity against HEK293 cells assessed as reduction in cell proliferation at 0.1 uM incubated for 72 hrs by SRB assay relative to control. It counts as toxicity, cell-based. The settings on record: human, read-out: Activity.
Data set [13] relates to HEK293. In words: Cytotoxicity against HEK293 cells assessed as reduction in cell proliferation at 0.31 uM incubated for 72 hrs by SRB assay relative to control. The settings on record: human, hek293, 72 h. The arrangement: scale not given: the % may be the effect or the level left. In kind it is toxicity, cell-based.
Data set [14] is described as follows: Cytotoxicity against mouse Balb/3T3-L1 cells assessed as reduction in cell proliferation at 10 uM incubated for 72 hrs by SRB assay relative to control. It counts as toxicity, cell-based. The settings on record: read-out: Activity.
Data set [15] can be described thus: Cytotoxicity against HEK293 cells assessed as reduction in cell proliferation at 31.4 uM incubated for 72 hrs by SRB assay relative to control. As to conditions: human, read-out: Activity. In kind it is toxicity, cell-based.
A short description of data set [16]: Cytotoxicity against HEK293 cells assessed as reduction in cell proliferation at 3.14 uM incubated for 72 hrs by SRB assay relative to control. It counts as toxicity, cell-based. As to conditions: human, read-out: Activity.
Data set [17] is described as follows: Cytotoxicity against HEK293 cells assessed as reduction in cell proliferation at 1 uM incubated for 72 hrs by SRB assay relative to control. It counts as toxicity, cell-based. The settings on record: human, read-out: Activity.
Data set [18] can be described thus: Cytotoxicity against mouse Balb/3T3-L1 cells assessed as reduction in cell proliferation at 31.4 uM incubated for 72 hrs by SRB assay relative to control. In kind it is toxicity, cell-based. The settings on record: read-out: Activity.
Data set [19] can be described thus: Cytotoxicity against mouse Balb/3T3-L1 cells assessed as reduction in cell proliferation at 0.1 uM incubated for 72 hrs by SRB assay relative to control. It counts as toxicity, cell-based. Set-up: scale not given: the % may be the effect or the level left. The settings on record: balb/3t3-l1, 72 h.
Data set [20] is described as follows: Stability of compound in methanol assessed as rate of hydrolysis measured after 3 days by NMR analysis. In kind it is physicochemical. The settings on record: time 3 day, read-out: Activity.
The subject of data set [21] is Sporosarcina pasteurii. In words: Competitive inhibition of Sporosarcina pasteurii CCM 2056 native urease using urea as substrate in presence of DTT measured for 1.5 hrs by colorimetric method.

Structures are written as SMILES. Calls of active or inactive are those of the source. The rule behind the calls is not given here.

Turning to `CC(=O)NO` [ACETOHYDROXAMIC ACID], in [1], the IC50 came out at 156 µM. Further, the Ki in data set [2] came out at 3.3 µM.
With `O=C(O)C(CP(=O)(O)O)c1ccc(O)c(O)c1` (racemic), the figures for the Ki in [3] and in data set [2] were 400 µM and 2.36 µM, respectively. The Activity was -3% in the data set with HEK293 [4], 20.1% in data set [11], -1.6% with HEK293 [13] and 6.7% in data set [19]. The inhibition at 72 h, 1 µM in data set [5] is 18.6%; in data set [17], -0.8%. Besides, the inhibition at 72 h, 100 µM in data set [6] is 7.8%; in data set [10], 34.9%. For the same compound, the inhibition entry in the data set on Sporosarcina pasteurii [7] was “inactive”. In addition, the inhibition at 72 h, 0.31 µM in data set [8] was found to be 15.6%. In addition, the inhibition result with Sporosarcina pasteurii [9] is “Tde”. Further, in data set [1], the IC50 turned out to be 0.75 µM. Besides, the inhibition at 72 h, 0.1 µM in data set [12] worked out at 1.4%. Moreover, the inhibition at 72 h, 10 µM in [14] turned out to be 22.1%. For the same compound, the values for the inhibition at 72 h, 31.4 µM in [15] and in data set [18] were -3% and 24.9%, respectively. The inhibition at 72 h, 3.14 µM in data set [16] is -0.2%.
Regarding `COC(=O)C(CP(=O)(O)O)c1ccc(O)c(O)c1` (racemic), the Ki in [3] came out at 107 µM; in data set [2] it was 78 µM. Also, in [20], the degraded at 72 h is less than 5%. Moreover, in the data set with Sporosarcina pasteurii [7], the inhibition entry is “Active”. Moreover, the IC50 in [1] came to 31.4 µM.
In the same order, the values of `COC(=O)CCP(=O)(O)CC(C(=O)OC)c1ccc(O)c(O)c1` (stereo not given) are 295 µM, 228 µM, less than 5%, “Active” and 412 µM.
Turning to `COC(=O)C(CP(=O)(O)CC(C(=O)OC)c1ccc(O)c(O)c1)c1ccc(O)c(O)c1` (mixture of isomers), the figures for the Ki in data set [3] and in [2] were 223 µM and 7.55 µM, respectively. Also, the inhibition entry in the data set with Sporosarcina pasteurii [7] is “inactive”. Further, in data set [1], the IC50 turned out to be 106 µM.
In the same order, the values of `O=C(O)C(CP(=O)(O)CC(C(=O)O)c1ccc(O)c(O)c1)c1ccc(O)c(O)c1` (mixture of isomers) are 16 µM, 6.8 µM, “inactive” and 13.1 µM.
On to `O=C(O)C(C[PH](=O)O)c1ccc(O)c(O)c1` (racemic), for which the Ki in data set [3] worked out at 79.3 µM; in data set [2], 58.8 µM. Also, in the data set with Sporosarcina pasteurii [7], the inhibition result is “inactive”. Besides, in the data set with Sporosarcina pasteurii [9], the inhibition entry is “Tde”. Besides, the IC50 in data set [1] amounted to 10.5 µM.
On to `O=C(O)CCP(=O)(O)CC(C(=O)O)c1ccc(O)c(O)c1` (racemic), for which the inhibitory constant (Ki) in data set [3] is 298 µM; in [2], 6.13 µM. In addition, the Activity with HEK293 [4] was determined as 16.3%; in data set [11] it was 17.5%; in the data set on HEK293 [13] it was 8.5%; in [19], 8%. In addition, the inhibition at 72 h, 1 µM in data set [5] was 13.4%; in [17], 8.1%. Further, the inhibition at 72 h, 100 µM in data set [6] was found to be 7.7%; in [10], 33.2%. Further, the inhibition entry in the data set on Sporosarcina pasteurii [7] is “inactive”. Besides, the inhibition at 72 h, 0.31 µM in [8] was 4.9%. The IC50 in data set [1] is 9.28 µM. Also, the inhibition at 72 h, 0.1 µM in [12] stood at 13.5%. Also, in data set [14], the inhibition at 72 h, 10 µM was found to be 17.4%. The inhibition at 72 h, 31.4 µM in [15] came out at 10.4%; in data set [18], 25.8%. For the same compound, the inhibition at 72 h, 3.14 µM in data set [16] worked out at 10.1%.
Turning to `O=C(O)C(CP(=O)(O)O)c1cc(O)c(O)cc1Br` (racemic), the Ki came to 41.9 µM in data set [3] and 34.8 µM in data set [2]. Moreover, the inhibition entry in the data set with Sporosarcina pasteurii [7] and in the data set with Sporosarcina pasteurii [21] was “Active” in each case. Also, the IC50 in [1] amounted to 50.3 µM.
In the case of `O=P(O)(O)CCc1ccc(O)c(O)c1`, the Ki amounted to 17.7 µM in data set [3] and 9.1 µM in [2]. Moreover, the Activity is recorded as 8.4% in the data set with HEK293 [4], 10.6% in [11], -3.4% in the data set on HEK293 [13] and 0.4% in data set [19]. Besides, the inhibition at 72 h, 1 µM in data set [5] is 15%; in data set [17], -0.9%. Further, the figures for the inhibition at 72 h, 100 µM in [6] and in data set [10] were 15.7% and 17.8%, respectively. In the data set with Sporosarcina pasteurii [7], the inhibition result was “Active”. For the same compound, the inhibition at 72 h, 0.31 µM in data set [8] came out at 5.9%. For the same compound, in [1], the IC50 was 26.6 µM. The inhibition at 72 h, 0.1 µM in [12] stood at 2.2%. Moreover, the inhibition at 72 h, 10 µM in data set [14] is 12.7%. Also, the inhibition at 72 h, 31.4 µM in [15] stood at 15.6%; in data set [18] it was 18.3%. Moreover, the inhibition at 72 h, 3.14 µM in [16] was determined as 0.1%.
